# Legend:
# human mAChRM1 [1] = molecular target: T1, human mAChRM1 (Homo sapiens, UniProt P11229); assay: mAChR M1 cell-based functional assay (calcium mobilization), agonist activity upon compound addition, Emax relative to acetylcholine maximum; conditions: for Agonist Activity Human M1 EC50 / EC50: calcium mobilization upon compound addition; for Emax: relative to the maximum for acetylcholine
# T1 construct: host or cells: CHO-K1
# T1 sequence (P11229 1-460): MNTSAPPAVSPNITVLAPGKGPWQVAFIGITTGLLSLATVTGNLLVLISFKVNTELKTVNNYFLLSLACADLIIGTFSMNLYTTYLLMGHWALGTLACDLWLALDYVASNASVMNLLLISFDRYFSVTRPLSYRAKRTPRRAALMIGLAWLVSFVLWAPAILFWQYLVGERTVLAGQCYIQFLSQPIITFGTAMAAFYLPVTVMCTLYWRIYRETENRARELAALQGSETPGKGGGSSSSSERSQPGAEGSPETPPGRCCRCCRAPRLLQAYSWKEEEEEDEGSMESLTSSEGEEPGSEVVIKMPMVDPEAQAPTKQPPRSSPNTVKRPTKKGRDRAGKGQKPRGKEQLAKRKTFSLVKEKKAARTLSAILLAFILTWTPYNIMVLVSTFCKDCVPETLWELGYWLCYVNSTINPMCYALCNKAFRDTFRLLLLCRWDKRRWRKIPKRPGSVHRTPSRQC
# Summary of the method: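 Emax is given as a percentage of the maximal acetylcholine response, from four-parameter curves of compound-evoked calcium mobilization. Human M1-transfected CHO-K1 cells carried Fluo-4 dye, and compound (11 concentrations, 1:3 steps) was applied at 4 s of a 300 s kinetic fluorescence recording.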
# human mAChRM1 [2] = molecular target: T1, human mAChRM1; assay: mAChR M1 cell-based functional assay (calcium mobilization), positive allosteric modulator activity: increase in the EC20 acetylcholine response; conditions: for Emax: PAM mode; for EC50: increase in the EC20 acetylcholine response, read-out: PAM Activity Human M1 EC50
# Summary of the method: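 Potentiation is scored as the rise in an EC20 acetylcholine-evoked calcium signal across 11-point (1:3) compound series, fitted with a four-parameter logistic equation to give EC50 and Emax. Read-out is Fluo-4 fluorescence ratio in hM1-transfected CHO-K1 cells, measured kinetically on FDSS.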
Agonist Activity Human M1 EC50 (human mAChRM1 [1]),Emax (human mAChRM1 [2]) [%],EC50 (human mAChRM1 [2]) [µM],EC50 (human mAChRM1 [1]) [µM],Emax (human mAChRM1 [1]) [%],SMILES
inactive,79,0.998,,,"Cc1cc(-c2cc(C(C)(C)O)c3nn(C)cc3c2)cc(F)c1CN1Cc2cccc(F)c2C1=O [Compound 168, 7-fluoro-2-(2-fluoro-4-(7-(2-hydroxypropan-2-yl)-2-methyl-2H-indazol-5-yl)-6-methylbenzyl)isoindolin-1-one]"
inactive,70,≥ 10,,,"Cn1cc2c(-c3cnc(CN4Cc5ncccc5C4=O)cn3)ccc(C(C)(C)O)c2n1 [Compound 109, 6-((5-(7-(2-hydroxypropan-2-yl)-2-methyl-2H-indazol-4-yl)pyrazin-2-yl)methyl)-6,7-dihydro-5H-pyrrolo[3,4-b]pyridin-5-one]"
inactive,35,≥ 10,,,"[2H]C1([2H])c2ncccc2C(=O)N1Cc1ccc(-c2ccc(C(C)(C)O)c3nn(C)cc23)cc1C(C)C [Compound 153, 6-(4-(7-(2-hydroxypropan-2-yl)-2-methyl-2H-indazol-4-yl)-2-isopropylbenzyl)-6,7-dihydro-5H-pyrrolo[3,4-b]pyridin-5-one-7,7-d2]"
inactive,65,1.44,,,"CC(C)(O)c1ccc(-c2cc(Cl)c(CN3Cc4ncccc4C3=O)c(Cl)c2)cc1 [Compound 46, 6-((3,5-dichloro-4′-(2-hydroxypropan-2-yl)-[1,1′-biphenyl]-4-yl)methyl)-6,7-dihydro-5H-pyrrolo[3,4-b]pyridin-5-one]"
,88,0.201,≥ 10,22,"Cn1cc2c(-c3cc(F)c(CN4Cc5cccnc5C4=O)c(F)c3)ccc(C(C)(C)O)c2n1 [Compound 121, 6-(2,6-difluoro-4-(7-(2-hydroxypropan-2-yl)-2-methyl-2H-indazol-4-yl)benzyl)-5,6-dihydro-7H-pyrrolo[3,4-b]pyridin-7-one]"
inactive,75,0.358,,,"Cn1cc2cc(-c3cc(F)c(CN4Cc5cccc(F)c5C4=O)c(F)c3)cc(C(C)(C)O)c2n1 [Compound 155, 2-(2,6-difluoro-4-(7-(2-hydroxypropan-2-yl)-2-methyl-2H-indazol-5-yl)benzyl)-7-fluoroisoindolin-1-one]"
,69,0.181,5.07,11,"Cn1cc2c(-c3ccc(CN4Cc5ncccc5C4=O)c(F)c3)ccc(C(C)(C)O)c2n1 [Compound 57, 6-(2-fluoro-4-(7-(2-hydroxypropan-2-yl)-2-methyl-2H-indazol-4-yl)benzyl)-6,7-dihydro-5H-pyrrolo[3,4-b]pyridin-5-one]"
inactive,75,0.414,,,"Cn1cc2c(-c3cc(F)c(CN4Cc5ncc(Br)cc5C4=O)c(F)c3)ccc(C(C)(C)O)c2n1 [Compound 173, 3-bromo-6-(2,6-difluoro-4-(7-(2-hydroxypropan-2-yl)-2-methyl-2H-indazol-4-yl)benzyl)-6,7-dihydro-5H-pyrrolo[3,4-b]pyridin-5-one]"
,79,0.364,6.72,23,"[2H]C1([2H])c2ncccc2C(=O)N1Cc1c(Cl)cc(-c2ccc(C(C)(C)O)c3nn(C)cc23)cc1C1CC1 [Compound 150, 6-(2-chloro-6-cyclopropyl-4-(7-(2-hydroxypropan-2-yl)-2-methyl-2H-indazol-4-yl)benzyl)-6,7-dihydro-5H-pyrrolo[3,4-b]pyridin-5-one-7,7-d2]"
inactive,52,≥ 10,,,"Cc1cc(-c2cc(C(C)(C)O)cc3nn[nH]c23)cc(F)c1CN1Cc2ncccc2C1=O [Compound 74, 6-(2-fluoro-4-(5-(2-hydroxypropan-2-yl)-1H-benzo[d][1,2,3]triazol-7-yl)-6-methylbenzyl)-6,7-dihydro-5H-pyrrolo[3,4-b]pyridin-5-one]"
,87,0.499,≥ 10,14,"Cc1cc(-c2ccc(C(C)(C)O)c3nn(C)cc23)ccc1CN1Cc2cccnc2C1=O [Compound 132, 6-(4-(7-(2-hydroxypropan-2-yl)-2-methyl-2H-indazol-4-yl)-2-methylbenzyl)-5,6-dihydro-7H-pyrrolo[3,4-b]pyridin-7-one]"
inactive,86,0.284,,,"CC(C)n1cc2c(-c3cc(F)c(CN4Cc5ncccc5C4=O)c(F)c3)ccc(C(C)(C)O)c2n1 [Compound 104, 6-(2,6-difluoro-4-(7-(2-hydroxypropan-2-yl)-2-isopropyl-2H-indazol-4-yl)benzyl)-6,7-dihydro-5H-pyrrolo[3,4-b]pyridin-5-one]"
inactive,49,6.37,,,"Cc1cc(-c2cc3c(c(C(C)(C)O)c2)OCO3)cc(F)c1CN1Cc2ncccc2C1=O [Compound 18, 6-(2-fluoro-4-(7-(2-hydroxypropan-2-yl)benzo[d][1,3]dioxol-5-yl)-6-methylbenzyl)-6,7-dihydro-5H-pyrrolo[3,4-b]pyridin-5-one]"
inactive,76,1.21,,,"Cn1ncc2c(-c3cc(F)c(CN4Cc5ncccc5C4=O)c(F)c3)ccc(C(C)(C)O)c21 [Compound 79, 6-(2,6-difluoro-4-(7-(2-hydroxypropan-2-yl)-1-methyl-1H-indazol-4-yl)benzyl)-6,7-dihydro-5H-pyrrolo[3,4-b]pyridin-5-one]"
inactive,73,1,,,"CC(C)(O)c1ccc(-c2cc(F)c(CN3Cc4ncccc4C3=O)c(F)c2)c2c1OCO2 [Compound 87, 6-(2,6-difluoro-4-(7-(2-hydroxypropan-2-yl)benzo[d][1,3]dioxol-4-yl)benzyl)-6,7-dihydro-5H-pyrrolo[3,4-b]pyridin-5-one]"
,81,0.076,1.4,22,"Cn1cc2c(-c3cc(F)c(CN4Cc5ncccc5C4=O)c(F)c3)ccc(C3(O)CCOCC3)c2n1 [Compound 92, 6-(2,6-difluoro-4-(7-(4-hydroxytetrahydro-2H-pyran-4-yl)-2-methyl-2H-indazol-4-yl)benzyl)-6,7-dihydro-5H-pyrrolo[3,4-b]pyridin-5-one]"
inactive,71,2.67,,,"CC(C)(O)c1ccc(-c2cc(F)c(CN3Cc4ncccc4C3=O)c(F)c2)cc1F [Compound 7, 6-((3,3′,5-trifluoro-4′-(2-hydroxypropan-2-yl)-[1,1′-biphenyl]-4-yl)methyl)-6,7-dihydro-5H-pyrrolo[3,4-b]pyridin-5-one]"
inactive,76,2.52,,,"Cc1cc(-c2cc(C(C)(C)O)cc3nn(C)cc23)cc(F)c1CN1Cc2ncccc2C1=O [Compound 25, 6-(2-fluoro-4-(6-(2-hydroxypropan-2-yl)-2-methyl-2H-indazol-4-yl)-6-methylbenzyl)-6,7-dihydro-5H-pyrrolo[3,4-b]pyridin-5-one]"
inactive,53,5.87,,,"Cc1cc(-c2ccc(C(C)(C)O)c3ncccc23)cc(F)c1CN1Cc2ncccc2C1=O [Compound 53, 6-(2-fluoro-4-(8-(2-hydroxypropan-2-yl)quinolin-5-yl)-6-methylbenzyl)-6,7-dihydro-5H-pyrrolo[3,4-b]pyridin-5-one]"
,83,0.116,2.46,20,"Cn1cc2c(-c3cc(F)c(CN4Cc5ncccc5C4=O)c(F)c3)ccc(C3(O)CCOC3)c2n1 (stereo not drawn) [Compound 90, 6-(2,6-difluoro-4-(7-(3-hydroxytetrahydrofuran-3-yl)-2-methyl-2H-indazol-4-yl)benzyl)-6,7-dihydro-5H-pyrrolo[3,4-b]pyridin-5-one]"
inactive,50,5.16,,,"Cc1c(C(C)(C)O)ccc(-c2cc(F)c(CN3Cc4ncccc4C3=O)c(F)c2)c1F [Compound 56, 6-((2′,3,5-trifluoro-4′-(2-hydroxypropan-2-yl)-3′-methyl-[1,1′-biphenyl]-4-yl)methyl)-6,7-dihydro-5H-pyrrolo[3,4-b]pyridin-5-one]"
inactive,71,4.47,,,"CCC(O)(c1ccc(-c2cc(F)c(CN3Cc4ncccc4C3=O)c(F)c2)c2cn(C)nc12)C(F)(F)F (stereo not drawn) [Compound 81, 6-(2,6-difluoro-4-(2-methyl-7-(1,1,1-trifluoro-2-hydroxybutan-2-yl)-2H-indazol-4-yl)benzyl)-6,7-dihydro-5H-pyrrolo[3,4-b]pyridin-5-one]"
inactive,67,2.72,,,"CCC(O)(CC)c1ccc(-c2cc(C)c(CN3Cc4ncccc4C3=O)c(F)c2)c2cn(C)nc12 [Compound 55, 6-(2-fluoro-4-(7-(3-hydroxypentan-3-yl)-2-methyl-2H-indazol-4-yl)-6-methylbenzyl)-6,7-dihydro-5H-pyrrolo[3,4-b]pyridin-5-one]"

# Reference: patent US20260138978A1, “POSITIVE ALLOSTERIC MODULATORS OF THE MUSCARINIC ACETYLCHOLINE RECEPTOR M1” (Vanderbilt University, priority 2022, published 2026)
